According to publication PMC10191376, “Characterization of the L-arabinofuranose-specific GafABCD ABC transporter essential for L-arabinose-dependent growth of the lignocellulose-degrading bacterium Shewanella sp. ANA-3” (Microbiology, 2023):

What was measured:
GafASm (Smb_21587) [1] = molecular target: T1, GafASm (Smb_21587) (Sinorhizobium meliloti, UniProt Q926G2); experiment: DSF thermal shift (ΔTm […] °C at […]); assay type: binding; conditions: read-out: ΔT m (°C) at 1.2 mM [ligand] / GafASm
T1 construct: gene SM_b21587

GafASm (Smb_21587) [2] = molecular target: T1, GafASm (Smb_21587); experiment: DSF thermal shift (ΔTm […] °C at […]), weak; assay type: binding; conditions: read-out: ΔT m (°C) at 1.2 mM [ligand] / GafASm
GafASm (Smb_21587) [3] = molecular target: T1, GafASm (Smb_21587); experiment: DSF thermal shift (ΔTm […] °C at […]); assay type: binding; conditions: read-out: ΔT m (°C) at 1.2 mM [ligand] / GafASm; remark: listed apart in the source
GafASw (Shewana3_2073) [4] = experiment: crystal structure ([…] Å), ITC, intrinsic fluorescence, DSF; assay type: binding, Shewanella sp. ANA-3
GafASm (Smb_21587) [5] = molecular target: T1, GafASm (Smb_21587); experiment: DSF thermal shift (ΔTm […] °C at […]); assay type: binding; conditions: read-out: ΔT m (°C) at 1.2 mM [ligand] / GafASm; remark: listed apart in the source
GafASw (Shewana3_2073) [6] = experiment: ITC, intrinsic fluorescence ([…]), DSF; assay type: binding, Shewanella sp. ANA-3

T1 sequence (Q926G2 entry or part of it): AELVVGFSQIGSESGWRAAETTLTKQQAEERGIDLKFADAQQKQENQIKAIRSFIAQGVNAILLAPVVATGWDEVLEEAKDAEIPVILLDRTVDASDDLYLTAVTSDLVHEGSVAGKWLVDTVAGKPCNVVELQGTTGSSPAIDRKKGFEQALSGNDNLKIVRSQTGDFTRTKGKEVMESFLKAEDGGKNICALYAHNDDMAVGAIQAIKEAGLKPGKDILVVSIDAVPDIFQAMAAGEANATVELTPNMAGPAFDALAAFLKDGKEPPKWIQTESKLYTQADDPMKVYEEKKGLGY

OC1OC[C@H](O)[C@H](O)[C@H]1O (stereo partly drawn) [L-arabinose]
ΔTm at 1200 µM (GafASm (Smb_21587) [1]): 14.4 ± 0.2 °C

OC[C@H]1OC(O)[C@@H](O)[C@@H](O)[C@H]1O (stereo partly drawn) [D-talose]
ΔTm at 1200 µM (GafASm (Smb_21587) [2]): 3.4 ± 0.2 °C

OC[C@H]1OC(O)[C@H](O)[C@@H](O)[C@H]1O (stereo partly drawn) [D-galactose]
ΔTm at 1200 µM (GafASm (Smb_21587) [3]): 11.6 ± 0.2 °C

OC[C@@H]1OC(O)[C@H](O)[C@H]1O (stereo partly drawn) [L-arabinofuranose]
Kd (GafASw (Shewana3_2073) [4]): 5.8 ± 0.51 µM

C[C@H]1OC(O)[C@H](O)[C@@H](O)[C@H]1O (stereo partly drawn) [D-fucose]
ΔTm at 1200 µM (GafASm (Smb_21587) [5]): 11.8 ± 0.2 °C

OC[C@H]1OC(O)[C@H](O)[C@H](O)[C@@H]1O (stereo partly drawn) [D-allose]
Kd (GafASw (Shewana3_2073) [6]): 27.4 ± 4.32 µM
